Assay results from US4626271A, “Cyanobacterin herbicide” (priority 1985, dated 1986).
Several values for one entry are separate records, joined by “and”; a condition that tells them apart may be missing. Identical values can stand only once.

Columns and labels:
[1] = test system: cyanobacterial spheroplast system; assay: Activity in a cyanobacterial spheroplast system; assay type: cell-based
Text: (§1) Synthetic cyanobacterin such as the racemic mixture prepared by Jong T. T. et al in J. Org.

whole cell growth = assay: Whole cell growth measurements, long term studies; assay type: cell-based
Text: as §1

cell growth = assay: Biological activity / cell growth of the anhydro analog; assay type: cell-based
Text: The cyanobacterin used in this invention may be obtained from Scytonema hofmanni (UTEX 2349 University of Texas Collection, Austin, Tex.) cells. Cyanobacterin is a diaryl substituted gamma-ylidene, gamma-butyro lactone with a chlorine substituent on one of the aromatic rings. […] This compound results from dehydration of the parent compound: [drawing 1]
It has been postulated by the inventor that a hydrophilic constituent on the lactone ring is crucial to the activity of cyanobacterin and may be involved in protein binding.

[2] = test system: Lemna gibba, L.minor and Lemna 6746 (Duckweed); assay: Use against aquatic plants (frond multiplication, toxicity); assay type: in vivo
Experimental: The effect of cyanobacterin was initially tested on the aquatic angiosperms, Lemna gibba, L.minor and Lemna 6746 (Duckweed). Cyanobacterin stopped frond multiplication at a minimum dose of 0.5 μg per ml of growth medium (1.1 μM). The plants recovered after about 7-12 days. Presumably, this is due to degradation of the cyanobacterin over time which drops the dosage below the minimum. At a concentration of 1.0 μg/ml (2.3 μM), cyanobacterin is toxic to Lemna. The plants generally appear normal for 10-15 days after which the roots fall off and the leaves become chlorotic.

[3] = test system: Zea Mays of the hybrid variety Goldencross Bantam; assay: Spray treatment of sweet corn; assay type: in vivo; settings: 1.0 milligrams, Example I composition
Experimental: (§2) 10 mg of cyanobacterin dissolved in lml. of ethyl ether was mixed with 0.1 ml of the Science "Sticker" of Science Products, Co., which contains about 77% Triton B-1956 brand surfactant. 10 ml of water was added and mixed. After mixing for about 30 minutes to allow the ether to evaporate, the composition was ready to apply to plants.
(§3) A variety of green plants were treated with a cyanobacterin solution prepared in accordance with Example I above. An atomizer was used to spray the plants with a fine spray. Before placing the fluid into an atomizer, the solution was measured and then remeasured after application on the plants.
(§4) A control solution of 0.1 ml of sticker-ether in 10 ml of distilled water was applied to the control plants. These plants were treated in the same manner as in the cyanobacterin application and measured in the same way. Plants were cut off at the soil line and dried for 16 hours at 110° C.
Zea Mays of the hybrid variety Goldencross Bantam was tested with one plant per pot. A total of nine control plants were used and 14 plants were treated with the cyanobacterin composition of Example I. The plants were treated once, 8 days after germination. After growing for a total of 15 days after treatment, the plants were cut off at the soil line and the dry weight was determined. A control plant dry weight was 227.4 milligrams and the cyanobacterin treated plant dry weight was 59.4 milligrams. The amount of cyanobacterin utilized was 1.0 milligrams.

[4] = test system: Pisum sativum, var. Little Marvel; assay: Spray treatment of pea; assay type: in vivo
Experimental: as §2, §3, §4
Pisum sativum, var. Little Marvel, plants were tested at a rate of 1 and 2 plants per pot. With one plant per pot, a total of nine control plants were used and 12 cyanobacterin treated plants were utilized. With 2 plants per pot, one control plant was utilized and 2 cyanobacterin treated plants were utilized. The plants were treated 8 and 6 days after germination respectively, with the cyanobacterin compound of Example I. The pots containing 1 plant per pot were treated with 1.5 milligrams and the pots containing 2 plants were treated with 0.6 milligrams of the cyanobacterin compound. The control plant dry weight of a single plant per pot plants after the fifteen days of growth was 363.8 milligrams and 194.9 milligrams for the cyanobacterin treated plant dry weight.

Rumex crispus = assay: Spray treatment of curled dock; assay type: in vivo; settings: for treated plant dry weight: fifteenth day
Experimental: as §2, §3, §4
Rumex crispus was grown at a rate of 10 plants or more per pot. A total of 5 control pots were used and 5 pots were treated with the cyanobacterin containing compound of Example I. Seven days after germination the plants were treated with 1.45 milligrams of cyanobacterin. […] By the 9th day, half the plants were dead and half were chlorotic. […] The control plant dry weight at the fifteenth day was 453.3 milligrams and the cyanobacterin dry weight was 93.1 milligrams.
Curled dock plants were also treated with 0.5 milligrams of cyanobacterin. The plants were treated with the cyanobacterin compound 8 days after germination. On the 7th day after treatment, many of the plants were dead and others were chlorotic.

Polygonium convolvulus = assay: Spray treatment of wild buckwheat; assay type: in vivo; settings: for treated plant dry weight: fifteenth day
Experimental: as §2, §3, §4
Polygonium convolvulus plants were raised at a rate of over 10 plants per pot. Five control pots were used and 5 pots were treated with the cyanobacterin containing compound of the invention.
The first plants treated were treated 2 days after germination with 0.29 milligrams of the cyanobacterin. The control plant dry weight at the fifteenth day was 92.4 milligrams and the cyanobacterin treated dry weight was 59.1 milligrams. The second group of plants were treated 4 days after germination with 0.5 milligrams of cyanobacterin.

Avena fatua = assay: Spray treatment of wild oats; assay type: in vivo
Experimental: as §2, §3, §4
Avena fatua plants were grown at a rate of over 10 plants per pot. A total of 5 control pots were used and 5 cyanobacterin treated pots were utilized.
Three separate concentrations of cyanobacterin were utilized. In group 1 the plants were treated 3 days after germination with 0.44 milligrams of the cyanobacterin. […] A second group were treated with 0.6 milligrams of cyanobacterin two weeks after germination. […] The third group of plants were treated with 1.05 milligrams of cyanobacterin 7 days after germination.

Setaria viridis = assay: Spray treatment of green foxtail; assay type: in vivo; settings: for treated plant dry weight: fifteenth day
Experimental: as §2, §3, §4
Setaria viridis plants were grown at a rate of over 10 per pot. A total of 5 control pots were used and 5 cyanobacterin treated pots were utilized. Two concentrations of cyanobacterin were utilized. In the first group 0.5 milligrams of cyanobacterin was applied to plants 8 days after germination. The control plant dry weight on the fifteenth day after cutting was 365.8 milligrams and the cyanobacterin treated plant dry weight was 176.3 milligrams. A second group of plants was treated with 2.8 milligrams of cyanobacterin 7 days after germination.

Application to the soil = assay type: in vivo
Text: (§5) Cyanobacterin, when applied to the soil had no effect. […] Also, it may not be transported through the root vascular system. The Hill reaction is inhibited by cyanobacterin as shown by the use of photosynthetically active pea chloroplasts.

photosystem II = assay: Hill reaction / oxygen evolution in pea chloroplasts; assay type: biochemical
Text: It is theorized that cyanobacterin acts on green plants by specifically binding to some component of the photosynthetic electron transport system.
as §5

Hydrophobicity = assay type: physicochemical
[5] = Herbicidal effect, amount relative to plant dry weight; assay type: in vivo; settings: by dry weight
Text: The composition may be formulated from high purity cyanobacterin or from crude extracts obtained from the blue-green algae since high purity is not required. […] Additionally, the composition may be formulated from a synthetic cyanobacterin, such as the racemic mixture described by T. T. Jong et al, "Total synthesis and X-ray structure determination of cyanobacterin", J. Org. Chem. 49:735-736(1984).

COc1ccc(/C=C2\OC(=O)C(Cc3cc(Cl)c4c(c3)OCO4)C2(O)C(C)C)cc1 (racemic) [Synthetic cyanobacterin]
activity relative to cyanobacterin [1]: about half the activity of cyanobacterin | activity relative to cyanobacterin (whole cell growth): the same activity

COc1ccc(/C=C2\OC(=O)C(Cc3cc(Cl)c4c(c3)OCO4)=C2C(C)C)cc1 [anhydrocyanobacterin]
biological activity (cell growth): no biological activity | effect on cell growth (cell growth): no effect on cell growth

COc1ccc(/C=C2\OC(=O)C(Cc3cc(Cl)c4c(c3)OCO4)C2(O)C(C)C)cc1 (stereo not drawn) [cyanobacterin]
plant condition by 30 days ([2]; 1.0 μg/ml or greater, purified cyanobacterin): most plants treated with 1.0 μg/ml or greater concentrations of purified cyanobacterin were dead | time until plants recovered ([2]; at minimum dose 0.5 μg per ml): 7 to 12 days | minimal effective concentration ([2]; in growth medium, read-out: minimum dose that stopped frond multiplication): 0.5 µg/mL and 1.1 µM | plant condition by the fifteenth day [3]: dead | plant condition on the ninth day after treatment [3]: no new growth | treated plant dry weight ([3]; treated once 8 days after germination, 15 days after treatment, control 227.4 milligrams): 59.4 milligrams | plant condition on the 15th day ([4]; 0.6 to 1.5 milligrams per plant): all of the cyanobacterin treated plants were dead | treated plant dry weight ([4]; 1 plant per pot, 1.5 milligrams, treated 8 days after germination, fifteen days of growth, control 363.8 milligrams): 194.9 milligrams | treated plant dry weight ([4]; 2 plants per pot, 0.6 milligrams, treated 6 days after germination, control 169.8 milligrams): 101.4 milligrams | plant condition by the 15th day (Rumex crispus; 0.5 milligrams): half of the plants were dead, one-quarter were chlorotic and one-quarter were large, green and healthy like the control | treated plant dry weight (Rumex crispus; 0.5 milligrams, 8 days after germination, control 451.9 milligrams): 239.1 milligrams | plant condition by the 15th day (Rumex crispus; 1.45 milligrams): all were dead except for a few | treated plant dry weight (Rumex crispus; 1.45 milligrams, seven days after germination, control 453.3 milligrams): 93.1 milligrams | treated plant dry weight (Polygonium convolvulus; 0.29 milligrams, 2 days after germination, control 92.4 milligrams): 59.1 milligrams | treated plant dry weight (Polygonium convolvulus; 0.5 milligrams, 4 days after germination, control 157.8 milligrams): 59.1 milligrams | plant condition by the 15th day (Polygonium convolvulus; either concentration (0.29 or 0.5 milligrams)): Only a few of the cyanobacterin treated plants were dead | treated plant dry weight (Avena fatua; 0.44 milligrams, 3 days after germination, fifteen days after treatment, control 154.6 milligrams): 115.5 milligrams | plant condition at the end of the experiment (Avena fatua; 0.44 to 1.05 milligrams): stressed but overall were still green and growing | treated plant dry weight (Avena fatua; 0.6 milligrams, two weeks after germination, fifteen days after treatment, control 328.5 milligrams): 79.5 milligrams | treated plant dry weight (Avena fatua; 1.05 milligrams, 7 days after germination, fifteenth day, control 489.6 milligrams): 155.8 milligrams | treated plant dry weight (Setaria viridis; 0.5 milligrams, 8 days after germination, control 365.8 milligrams): 176.3 milligrams | plant condition at approximately the 9th day after treatment (Setaria viridis; 0.5 or 2.8 milligrams): approximately half of the plants had died | treated plant dry weight (Setaria viridis; 2.8 milligrams, 7 days after germination, control 411.7 milligrams): 217.7 milligrams | effect when applied to the soil (Application to the soil): no effect | electron flow from water to electron acceptors (photosystem II): inhibits electron flow | Hill reaction (photosystem II; photosynthetically active pea chloroplasts): inhibited | concentration that completely inhibits oxygen evolution (photosystem II; photosynthetically active pea chloroplasts, in the presence of DCPIP): 110 nM | hydrophobicity (Hydrophobicity): very hydrophobic | amount effective as a herbicide relative to plant dry weight [5]: one part of the cyanobacterin to 450 parts of the plant
